Measurements from ChEMBL document CHEMBL3612061, “Imidazopyridines as a source of biological activity and their pharmacological potentials-Infrared and Raman spectroscopic evidence of their content in pharmaceuticals and plant materials” (Bioorg Med Chem, 2015).
Values after ≈ are worked out from the molar mass of the structure shown.

Tested on: Vaccinia virus
Assay: Antiviral activity against Vaccinia virus assessed as protection against virus-induced cytopathogenic effect by cell based assay
Format: functional
Settings: Orthopoxvirus vaccinia; read-out: ID50 (the source's name)

With `Nc1nccc2c1ncn2C1C=C(CO)C(O)C1O` (stereo unspecified) [3-DEAZANEPLANOCIN A] the IC50 was 0.02 µg/mL (≈ 0.0763 µM).
